Measured values: article PMC7697705, “Design, Synthesis and Biological Evaluation of (2′,5′ and 3′5′-Linked) cGAMP Analogs that Activate Stimulator of Interferon Genes (STING)” (Molecules, 2020)
Read-outs that look alike come from different tables or passages of the source.

How the values were obtained:
human STING = target: T1, human STING (Homo sapiens, UniProt Q86WV6); assay: surface plasmon resonance (SPR)-based hSTING binding assay; settings: for kon: read-out: Ka; for Kd: KD = Kd/Ka
T1 construct: N-terminal cysteine (thiol coupling handle)
Excerpt: Direct measurement of affinity constants provide assistance in pharmacokinetic and pharmacodynamic studies. In this study, we evaluated the binding affinities between human STING and the synthesized CNDs by the surface plasmon resonance (SPR)-based assay, which loaded minuscule amounts of STING protein on a biosensor chip, and free-labeled samples were directly detected in short measurement times.
hSTING was firstly immobilized on a CM5 sensor chip via a N-terminal cysteine thiol group, without altering conformation or binding activity. […] Kinetic parameters generally give both an aggregation constant (ka) and a disaggregation constant (kd), from which the equilibrium dissociation constant KD can be calculated by KD = Kd/Ka.
SPR system was primed using the manufacturer’s HEPES-buffered saline at 25 °C. CM5 chips were warmed to room temperature on the bench before being added to the system. SPR surfaces were cleaned and conditioned (separate injections of 50 mM NaOH, 1 M NaCl, 0.1% SDS and 10 mM HCl, each for 60 s at 10 μL/min) prior to normalization using the manufacturer’s 70% glycerol solution (GE Healthcare). STING was prepared at 100 μg/mL in SPR running buffer with no DMSO and injected twice onto channel 2 for 600 s at 5 μL/min.
Cyclic dinucleotides were prepared to 1-mM stocks in SPR running buffer. A 12-concentrations dilution series, including a blank containing no substrate, were made and diluted in a 96-well polypropylene Greiner plate. Plates were spun and then placed at 4 °C until experimentation. Experiments were performed at 60 μL/min with data collected every 0.1s.

THP-1 cells = assay: IFN-β production in THP-1 cells by ELISA; settings: 1 μM, 18 h
Method: The IFN-β levels in the cell culture supernatants were measured using the ELISA kits (Meimian Biotechnology, Jiangsu, China), according to the manufacturer’s instructions.

[1] = SPR, hSTING immobilized on CM5 chip, 25 °C

T1 sequence (Q86WV6 whole entry): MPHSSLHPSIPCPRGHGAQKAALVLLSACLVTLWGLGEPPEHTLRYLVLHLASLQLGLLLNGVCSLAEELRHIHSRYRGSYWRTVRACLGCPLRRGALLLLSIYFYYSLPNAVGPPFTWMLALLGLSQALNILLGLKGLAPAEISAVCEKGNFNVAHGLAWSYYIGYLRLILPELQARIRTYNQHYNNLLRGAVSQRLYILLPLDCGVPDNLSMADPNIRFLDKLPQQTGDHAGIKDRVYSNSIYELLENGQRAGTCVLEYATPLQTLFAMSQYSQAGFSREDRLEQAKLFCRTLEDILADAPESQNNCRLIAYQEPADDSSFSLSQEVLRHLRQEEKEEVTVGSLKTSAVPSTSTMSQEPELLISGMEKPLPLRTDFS

dissociation rate constant koff (human STING; [1]) | kon (human STING; [1]) | Kd (human STING; SPR) | SMILES | production of IFN-β (ELISA) (THP-1 cells) | kon (human STING)
0.002431 s⁻¹ | 208 M⁻¹ s⁻¹ | 11.7 µM | Cc1cn([C@@H]2O[C@@H]3COP(=O)(O)O[C@H]4[C@@H](O)[C@H](n5cnc6c(N)ncnc65)O[C@@H]4COP(=O)(O)O[C@@H]2[C@@H]3O)c(=O)[nH]c1=O [Compound 12a, 2′,3′-cyclic-5-methyluridine-adenosine] | – | –
0.0007331 s⁻¹ | 198 M⁻¹ s⁻¹ | 3.7 µM | Cc1cn([C@@H]2O[C@@H]3COP(=O)(O)O[C@H]4[C@@H](O)[C@H](n5cnc6c(N)ncnc65)O[C@@H]4COP(=O)(O)O[C@@H]2[C@@H]3O)c(=O)nc1N [Compound 12c, 2′,3′-cyclic-5-methylcytidine-adenosine] | – | –

Further lines, the molecule ahead of its results:

SMILES | dissociation rate constant koff (human STING; [1]) | kon (human STING; [1]) | Kd (human STING; SPR) | production of IFN-β (ELISA) (THP-1 cells) | kon (human STING)
Cc1cn([C@@H]2O[C@@H]3COP(=O)(O)O[C@@H]4[C@H](O)[C@@H](COP(=O)(O)O[C@H]3[C@H]2O)O[C@H]4n2cnc3c(=O)[nH]c(N)nc32)c(=O)[nH]c1=O [Compound 8a, 2′,3′-cyclic-guanosine-5-methyluridine] | 0.002649 s⁻¹ | 349 M⁻¹ s⁻¹ | 7.58 µM | – | –
Cc1cn([C@@H]2O[C@@H]3COP(O)(=S)O[C@H]4[C@@H](O)[C@H](n5cnc6c(N)ncnc65)O[C@@H]4COP(O)(=S)O[C@@H]2[C@@H]3O)c(=O)[nH]c1=O (stereo partly shown) [Compound 12b, 2′,3′-cyclic-5-methyluridine(PS)-adenosine(PS)] | 0.0009865 s⁻¹ | 289 M⁻¹ s⁻¹ | 3.41 µM | more IFN-β than the corresponding phosphodiester analogs | –
Cc1cn(C2OC3COP(=O)(O)OC4C(O)C(COP(=O)(O)OC3C2O)OC4n2cnc3c(=O)[nH]c(N)nc32)c(=O)nc1N (stereo not shown) [Compound 8c, 2′,3′-cyclic-guanosine-5-methylcytidine] | 1.397e-05 s⁻¹ | 152 M⁻¹ s⁻¹ | 0.092 µM | – | –
Cc1cn([C@@H]2O[C@@H]3COP(O)(=S)O[C@@H]4[C@H](O)[C@@H](COP(O)(=S)O[C@H]3[C@H]2O)O[C@H]4n2cnc3c(=O)[nH]c(N)nc32)c(=O)[nH]c1=O (stereo partly shown) [Compound 8b, 2′,3′-cyclic-guanosine(PS)-5-methyluridine(PS)] | 0.0001339 s⁻¹ | – | – | more IFN-β than the corresponding phosphodiester analogs | 233 M⁻¹ s⁻¹
